Data: US20080004302A1, “Novel Compounds” (ASTRAZENECA AB, priority 2006, published 2008)
Read-outs that look alike come from different tables or passages of the source.

Legend:
[1] = target: human cytochrome P450 (CYP) 2C9 (Homo sapiens, UniProt P11712)
Method: (§1) The inhibitory potential (IC50) of test compounds against 5 human cytochrome P450 (CYP) isoforms (IA2, 2C9, 2C19, 3A4 and 2D6) was assessed using an automated fluorescent end point in vitro assay modified from Crespi (Crespi and Stresser, 2000). Microsomal subcellular fractions prepared from Yeast cell lines expressing each human CYP isoform were used as an enzyme source in this assay. The activity of the 5 major human CYPs was determined from the biotransformation of a number of coumarin substrates to fluorescent metabolites, in the presence of NADPH. […] Stock solutions of each CYP, with its respective substrate, were prepared in phosphate buffer pH7.4 (see Table 1) and 178 μl was added to the well of a black solid, flat bottom, 300 μl 96 well microtitre plate (Coming Costar). […] After pre-incubating at 37° C. for 5 min the reactions were started with addition of NADPH (20 μl, concentration shown in Table 1). The final solvent content in each incubation was <=2% (1% from the test compound and a maximum of 1% from the substrate). The appropriate solvent controls and substrate blanks were included in each experiment to assess control activity and identify any inherent fluorescence due to the test compounds. In addition, known inhibitors of each CYP were included as positive controls (see Table 3 for inhibitor concentrations and expected IC50 ranges). The reactions were stopped at defined timepoints (see Table 1) by quenching with 100 μl of solvent (acetonitrile:0.5M Tris buffer 80:20 v/v). The plates were read on a fluorimeter (Spectrafluor Plus) at the appropriate excitation and emission wavelengths (listed in Table 2) and the percent activity, corrected for control, was plotted against the test compound concentration.

[2] = target: T1, human cytochrome P450 (CYP) 1A2 (Homo sapiens, UniProt P05177)
T1 sequence (P05177 1-516): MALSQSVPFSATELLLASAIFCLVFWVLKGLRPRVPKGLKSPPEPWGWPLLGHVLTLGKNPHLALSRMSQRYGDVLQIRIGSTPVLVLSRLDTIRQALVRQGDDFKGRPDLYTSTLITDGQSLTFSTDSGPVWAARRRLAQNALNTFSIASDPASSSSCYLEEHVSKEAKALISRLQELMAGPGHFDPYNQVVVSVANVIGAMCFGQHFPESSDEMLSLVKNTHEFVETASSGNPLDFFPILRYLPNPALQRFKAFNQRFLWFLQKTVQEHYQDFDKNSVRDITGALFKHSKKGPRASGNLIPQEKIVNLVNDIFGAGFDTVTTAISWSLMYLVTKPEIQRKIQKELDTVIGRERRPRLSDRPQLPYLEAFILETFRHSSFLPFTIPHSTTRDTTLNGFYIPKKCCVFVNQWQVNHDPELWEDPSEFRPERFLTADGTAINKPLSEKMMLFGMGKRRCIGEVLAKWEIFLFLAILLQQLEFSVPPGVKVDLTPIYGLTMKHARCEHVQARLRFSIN
Method: as §1

[3] = target: T2, human cytochrome P450 (CYP) 3A4 (Homo sapiens, UniProt P08684); assay: Cytochrome P450 inhibition assay, 3A4; type: in vitro ADME; settings: test concentrations 0.1-10 μM
T2 construct: made in house; host or cells: yeast (microsomal fraction)
Method: as §1

[4] = target: human cytochrome P450 (CYP) 2C19 (Homo sapiens, UniProt P33261)
Method: as §1

CYP2D6 = CYP2D6 (Homo sapiens, UniProt P10635); assay: in vitro; settings: pH 7.4, probe coumarin substrate (not named)
Method: as §1

FGFR kinase domain = target: T3, FGFR kinase domain (Homo sapiens, UniProt P11362, C488A/C584S); assay: Kinase assay (ELISA) for inhibition of FGFR activity; type: biochemical
T3 construct: FGFR kinase domain (amino acids 458-765, C488A, C584S) N-terminally fused to a His6-tag; made in house
Method: To determine inhibition of FGFR activity, kinase assays were conducted using ELISA (Enzyme-Linked Immunosorbent Assay) technology.
Kinase activity assays were performed in 384-well polypropylene plates (Matrix, 4311) with a total volume of 40 μl in each well. Each well was coated with 2 μg of polyEAY substrate (Sigma, P3899) at 4° C. overnight. The plates were then washed once with 100 μl PBS and once with 100 μl 50 mM HEPES (pH 7.4) prior to the addition of the kinase assay reagents. […] Various concentrations of test compounds were each added in 5% (v/v) DMSO to yield a final assay DMSO concentration of 1.25% (v/v). The kinase reactions were incubated at room temperature for 45 minutes and stopped by washing the plate three times with 100 μl PBS plus 0.05% Tween. […] Following this, the plates were then washed repeatedly with 100 μl PBS plus 0.05% Tween to remove all traces of the antibody solution. 40 μl of 50 μg/ml 3,3′,5,5′-Tetramethylbenzidine (Sigma, T2885), 0.05M phosphate-citrate buffer, containing 0.03% sodium perborate was added to each well and the plates incubated at room temperature for twelve minutes. The colour reaction was stopped by the addition of 20 μl 2M H2SO4 and the plates read at 450 nm on a Spectrafluor Plus (Tecan).

Erk phosphorylation = assay: Growth factor (bFGF) stimulated Erk phosphorylation in NIH 3T3 cells; settings: Mus musculus
human IGF1R = target: T4, human IGF1R (Homo sapiens, UniProt P08069); assay: Inhibition of insulin-like growth factor-1 receptor phosphorylation in R+ cells; type: cell-based; settings: 30 nM IGF1, read-out: IGF cell class
T4 construct: expressed in transfected cells; host or cells: R+ cells (R- mouse fibroblasts transfected with human IGF1R)

FGFR1 IIIc [5] = target: T5, FGFR1 IIIc (Homo sapiens, UniProt P11362); assay: Cell based inhibition of transiently expressed FGFR1 IIIc phosphorylation (Cos-1 cells); settings: Cos-1 cells, phospho-FGFR1; upper bound of bin; read-out: IC50
T5 construct: host or cells: Cos-1

FGFR1 IIIc [6] = target: T5, FGFR1 IIIc; assay: Cell based inhibition of transiently expressed FGFR1 IIIc phosphorylation via use of ECHO technology (Cos-1 cells); settings: Cos-1 cells, phospho-FGFR1, ECHO dosing; upper bound of bin; read-out: IC50
CYP3A4 = target: T6, CYP3A4 (Homo sapiens, UniProt P08684); assay: Cytochrome P450 inhibition assay, 3A4; type: in vitro ADME; settings: human, pH 7.4, probe coumarin substrate (not named); test concentrations 0.1-10 μM
T6 construct: made in house; host or cells: yeast (microsomal fraction)
Method: as §1

FGFR1 kinase = FGFR1 kinase (Homo sapiens, UniProt P11362); assay: Kinase assay (using Caliper technology); type: biochemical; settings: FGFR1 kinase, Caliper; upper bound of bin; read-out: IC50
In short: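 Human FGFR1 kinase activity measured with a 13-mer fluorescently tagged FGFR1-specific peptide substrate; compounds serially diluted in 5% (v/v) DMSO. Reactions ran 1.5 h at room temperature, stopped with EDTA-containing HEPES pH 7.5 buffer. Phosphorylated and unphosphorylated peptide separated by microfluidic mobility shift.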

[7] = comparative testing, read-out: Fgf Ic50
[8] = FGFR inhibition tests, ELISA kinase assay, read-out: Activity class
[9] = NIH3T3, NIH 3T3 cells, 3 ng/ml bFGF
[10] = NIH3T3, NIH 3T3 cells, 3 ng/ml bFGF, upper bound of bin

T4 sequence (P08069 31-1367): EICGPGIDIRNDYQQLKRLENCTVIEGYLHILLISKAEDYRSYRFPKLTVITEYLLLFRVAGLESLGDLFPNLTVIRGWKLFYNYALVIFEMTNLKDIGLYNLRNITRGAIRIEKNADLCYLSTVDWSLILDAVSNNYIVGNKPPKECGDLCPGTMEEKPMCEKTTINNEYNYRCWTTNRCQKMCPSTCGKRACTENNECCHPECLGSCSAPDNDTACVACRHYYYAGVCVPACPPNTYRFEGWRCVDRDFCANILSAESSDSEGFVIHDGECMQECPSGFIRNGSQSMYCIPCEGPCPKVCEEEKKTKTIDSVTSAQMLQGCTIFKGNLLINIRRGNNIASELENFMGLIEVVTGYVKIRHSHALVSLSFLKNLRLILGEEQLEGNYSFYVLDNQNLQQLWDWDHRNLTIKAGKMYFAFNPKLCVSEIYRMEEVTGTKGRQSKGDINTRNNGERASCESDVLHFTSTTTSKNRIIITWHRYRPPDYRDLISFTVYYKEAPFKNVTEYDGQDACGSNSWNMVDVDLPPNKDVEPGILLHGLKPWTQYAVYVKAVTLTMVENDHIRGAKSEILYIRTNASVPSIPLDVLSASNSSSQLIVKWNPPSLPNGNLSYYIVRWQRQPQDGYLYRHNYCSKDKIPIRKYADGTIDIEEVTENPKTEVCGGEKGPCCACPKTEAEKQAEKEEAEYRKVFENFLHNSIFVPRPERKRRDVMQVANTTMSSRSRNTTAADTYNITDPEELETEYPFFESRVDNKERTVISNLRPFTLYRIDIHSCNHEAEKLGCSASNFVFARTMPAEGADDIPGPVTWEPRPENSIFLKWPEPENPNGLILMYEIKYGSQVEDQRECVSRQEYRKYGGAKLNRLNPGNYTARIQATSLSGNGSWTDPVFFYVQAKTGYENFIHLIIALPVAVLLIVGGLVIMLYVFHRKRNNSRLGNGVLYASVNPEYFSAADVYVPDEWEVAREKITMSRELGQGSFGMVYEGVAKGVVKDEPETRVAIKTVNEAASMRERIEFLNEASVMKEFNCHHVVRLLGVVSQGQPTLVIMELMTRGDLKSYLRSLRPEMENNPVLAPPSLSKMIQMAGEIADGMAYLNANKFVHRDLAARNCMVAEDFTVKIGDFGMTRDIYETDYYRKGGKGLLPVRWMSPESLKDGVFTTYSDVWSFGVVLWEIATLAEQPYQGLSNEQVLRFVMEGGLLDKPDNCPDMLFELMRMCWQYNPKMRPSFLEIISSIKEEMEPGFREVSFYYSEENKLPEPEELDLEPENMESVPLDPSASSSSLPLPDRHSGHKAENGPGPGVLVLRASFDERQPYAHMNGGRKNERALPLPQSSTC
T2 sequence (P08684 whole entry): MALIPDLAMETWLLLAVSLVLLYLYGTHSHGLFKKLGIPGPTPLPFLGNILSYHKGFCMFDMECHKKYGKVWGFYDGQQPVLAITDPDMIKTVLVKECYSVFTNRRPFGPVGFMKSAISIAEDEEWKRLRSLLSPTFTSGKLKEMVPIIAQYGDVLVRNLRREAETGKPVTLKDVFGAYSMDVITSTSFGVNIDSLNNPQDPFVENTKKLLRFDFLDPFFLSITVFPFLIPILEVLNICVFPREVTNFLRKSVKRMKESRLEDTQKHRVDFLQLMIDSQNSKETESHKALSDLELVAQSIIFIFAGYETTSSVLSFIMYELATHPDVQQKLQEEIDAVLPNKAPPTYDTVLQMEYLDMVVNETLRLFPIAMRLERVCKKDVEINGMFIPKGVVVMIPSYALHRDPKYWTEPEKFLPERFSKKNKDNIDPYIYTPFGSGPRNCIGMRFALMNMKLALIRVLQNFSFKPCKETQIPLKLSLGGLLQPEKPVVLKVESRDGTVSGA
human cytochrome P450 (CYP) 2C19, sequence (P33261 whole entry): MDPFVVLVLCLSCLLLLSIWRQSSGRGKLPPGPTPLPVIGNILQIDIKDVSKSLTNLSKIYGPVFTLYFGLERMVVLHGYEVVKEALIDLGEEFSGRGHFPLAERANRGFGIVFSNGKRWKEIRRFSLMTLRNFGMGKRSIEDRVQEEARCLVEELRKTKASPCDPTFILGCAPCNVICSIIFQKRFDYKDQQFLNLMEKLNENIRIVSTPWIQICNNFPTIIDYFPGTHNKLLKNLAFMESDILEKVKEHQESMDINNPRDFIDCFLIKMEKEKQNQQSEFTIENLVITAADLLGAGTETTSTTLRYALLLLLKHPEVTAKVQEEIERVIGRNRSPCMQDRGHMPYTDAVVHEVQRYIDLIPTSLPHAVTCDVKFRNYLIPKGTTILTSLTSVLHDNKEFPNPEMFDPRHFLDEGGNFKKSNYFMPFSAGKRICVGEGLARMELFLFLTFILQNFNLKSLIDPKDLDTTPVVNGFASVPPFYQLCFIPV
human cytochrome P450 (CYP) 2C9, sequence (P11712 whole entry): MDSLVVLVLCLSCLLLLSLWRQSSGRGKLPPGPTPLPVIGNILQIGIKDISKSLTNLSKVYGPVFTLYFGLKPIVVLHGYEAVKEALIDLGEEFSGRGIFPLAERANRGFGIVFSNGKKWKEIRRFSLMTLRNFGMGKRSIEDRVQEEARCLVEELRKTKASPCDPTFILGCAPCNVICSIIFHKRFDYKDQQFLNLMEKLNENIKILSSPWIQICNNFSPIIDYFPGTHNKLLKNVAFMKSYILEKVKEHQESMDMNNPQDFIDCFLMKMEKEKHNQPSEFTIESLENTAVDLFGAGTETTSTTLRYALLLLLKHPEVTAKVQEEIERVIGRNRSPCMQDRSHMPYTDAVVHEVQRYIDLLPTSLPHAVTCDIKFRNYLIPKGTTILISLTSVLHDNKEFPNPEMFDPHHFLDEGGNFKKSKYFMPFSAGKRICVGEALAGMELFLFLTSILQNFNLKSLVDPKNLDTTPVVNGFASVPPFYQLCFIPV
FGFR1 kinase, sequence (P11362 22-822): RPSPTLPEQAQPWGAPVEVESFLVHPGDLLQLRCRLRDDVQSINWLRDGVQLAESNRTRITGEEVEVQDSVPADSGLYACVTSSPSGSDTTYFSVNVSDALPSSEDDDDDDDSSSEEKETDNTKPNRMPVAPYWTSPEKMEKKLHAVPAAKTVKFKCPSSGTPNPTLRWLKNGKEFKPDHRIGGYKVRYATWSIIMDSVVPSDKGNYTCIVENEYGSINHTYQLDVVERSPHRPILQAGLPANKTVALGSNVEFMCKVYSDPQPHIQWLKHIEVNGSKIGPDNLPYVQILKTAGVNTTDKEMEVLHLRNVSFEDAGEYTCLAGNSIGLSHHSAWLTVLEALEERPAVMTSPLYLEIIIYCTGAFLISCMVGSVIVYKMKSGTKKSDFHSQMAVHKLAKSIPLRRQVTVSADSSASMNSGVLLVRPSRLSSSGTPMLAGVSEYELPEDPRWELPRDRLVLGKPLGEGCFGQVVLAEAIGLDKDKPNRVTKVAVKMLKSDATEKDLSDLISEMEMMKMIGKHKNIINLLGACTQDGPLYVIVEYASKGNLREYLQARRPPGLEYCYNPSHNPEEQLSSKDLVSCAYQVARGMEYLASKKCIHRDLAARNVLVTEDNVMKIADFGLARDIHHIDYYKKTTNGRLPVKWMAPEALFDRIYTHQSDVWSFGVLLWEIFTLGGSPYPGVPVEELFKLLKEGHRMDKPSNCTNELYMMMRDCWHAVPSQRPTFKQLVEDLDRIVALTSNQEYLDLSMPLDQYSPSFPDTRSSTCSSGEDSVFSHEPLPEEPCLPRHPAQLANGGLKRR
T5 sequence (P11362 22-822): as above
CYP2D6, sequence (P10635 whole entry, the tested form may be a part): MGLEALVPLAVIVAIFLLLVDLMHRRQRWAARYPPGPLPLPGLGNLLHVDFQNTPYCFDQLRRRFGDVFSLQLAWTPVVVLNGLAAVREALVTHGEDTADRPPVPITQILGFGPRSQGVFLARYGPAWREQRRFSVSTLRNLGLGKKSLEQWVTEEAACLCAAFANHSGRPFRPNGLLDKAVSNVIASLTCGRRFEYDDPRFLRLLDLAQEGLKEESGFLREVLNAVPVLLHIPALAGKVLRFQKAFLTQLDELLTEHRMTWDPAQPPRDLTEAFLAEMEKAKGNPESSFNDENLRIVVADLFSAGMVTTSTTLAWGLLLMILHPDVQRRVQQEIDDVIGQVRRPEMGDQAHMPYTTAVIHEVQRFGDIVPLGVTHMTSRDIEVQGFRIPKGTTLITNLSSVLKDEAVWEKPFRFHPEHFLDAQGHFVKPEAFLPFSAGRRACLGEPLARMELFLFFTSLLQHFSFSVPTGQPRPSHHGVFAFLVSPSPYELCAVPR
T3 sequence (P11362 458-765 C488A/C584S): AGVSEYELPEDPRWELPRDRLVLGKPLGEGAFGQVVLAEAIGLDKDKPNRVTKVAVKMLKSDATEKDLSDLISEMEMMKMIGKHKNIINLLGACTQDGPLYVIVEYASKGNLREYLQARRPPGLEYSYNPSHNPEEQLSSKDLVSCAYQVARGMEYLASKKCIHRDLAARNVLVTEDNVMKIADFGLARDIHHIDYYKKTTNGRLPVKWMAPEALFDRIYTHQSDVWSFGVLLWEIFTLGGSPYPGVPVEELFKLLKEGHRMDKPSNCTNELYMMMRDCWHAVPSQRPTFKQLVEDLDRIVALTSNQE
T6 sequence (P08684 whole entry): as the sequence (P08684 whole entry) above

| Compound | IC50 [1] | IC50 [2] | IC50 [4] | IC50 (CYP2D6) | IC50 (human IGF1R) | IC50 (FGFR kinase domain; [8]) | IC50 (FGFR1 IIIc [5]) | IC50 (FGFR1 IIIc [6]) | IC50 (Erk phosphorylation; [9]) | IC50 (FGFR1 kinase) | further results |
| --- | --- | --- | --- | --- | --- | --- | --- | --- | --- | --- | --- |
| Cc1cc(CNc2ncc(Cl)c(Nc3cc(C)[nH]n3)n2)on1 [(b), 5-chloro-N-[(3-methylisoxazol-5-yl)methyl]-N′-(5-methyl-2H-pyrazol-3-yl)pyrimidine-2,4-diamine] | 1120 nM | 460 nM | > 10000 nM | > 10000 nM | – | – | – | – | – | – | IC50 [3]: 4400 nM |
| Cc1cc(Nc2nc(NCc3cc(C)no3)ncc2Br)[nH]n1 [Comparative Example (a), 5-bromo-N-[(3-methylisoxazol-5-yl)methyl]-N′-(5-methyl-2H-pyrazol-3-yl)pyrimidine-2,4-diamine] | > 10000 nM | 790 nM | > 10000 nM | > 10000 nM | – | – | – | – | – | – | IC50 (FGFR kinase domain; [7]): 140 nM; IC50 [3]: 3310 nM |
| CCCc1cc(Nc2nc(NCc3cc(C)no3)ncc2Br)n[nH]1 [Comparative Example (d), 5-bromo-N-[(3-methylisoxazol-5-yl)methyl]-N′-(5-propyl-2H-pyrazol-3-yl)pyrimidine-2,4-diamine] | 3080 nM | ≤ 100 nM | 2880 nM | > 10000 nM | – | – | – | – | – | – | IC50 (FGFR kinase domain; [7]): 90 nM; IC50 [3]: 370 nM |
| Cc1cc(CNc2nccc(Nc3cc(C)[nH]n3)n2)on1 [Example 1, N-[(3-methylisoxazol-5-yl)methyl]-N′-(5-methyl-2H-pyrazol-3-yl)pyrimidine-2,4-diamine] | > 10000 nM | > 10000 nM | > 10000 nM | > 10000 nM | > 10000 nM | – | – | – | – | – | IC50 [3]: 5700 nM; IC50 (Erk phosphorylation; NIH3T3): < 1000 nM |
| Cc1cc(Nc2ccnc(NCc3cc(C4CC4)no3)n2)n[nH]1 [Example 3, N-[(3-cyclopropylisoxazol-5-yl)methyl]-N ′-(5-methyl-2H-pyrazol-3-yl)pyrimidine-2,4-diamine] | – | – | – | – | 1000 to 10000 nM | < 100 nM | < 1000 nM | < 1000 nM | < 200 nM | – | – |
| Cc1cc(CNc2nccc(Nc3cc(C4CC4)[nH]n3)n2)on1 [Example 9, N′-(5-cyclopropyl-2H-pyrazol-3-yl)-N-[(3-methyl-1,2-oxazol-5-yl)methyl]pyrimidine-2,4-diamine] | > 10000 nM | 2190 nM | > 10000 nM | > 10000 nM | 1000 to 10000 nM | < 100 nM | – | – | – | – | IC50 (FGFR kinase domain; [7]): 40 nM; IC50 (CYP3A4): > 10000 nM |
| COc1ccc(CCc2cc(Nc3ccnc(NCc4cc(C)no4)n3)n[nH]2)cc1 [Example 24, N′-[5-[2-(4-methoxyphenyl)ethyl]-2H-pyrazol-3-yl]-N-[(3-methyl-1,2-oxazol-5-yl)methyl]pyrimidine-2,4-diamine] | – | – | – | – | > 10000 nM | 100 to 1000 nM | < 1000 nM | – | – | < 1000 nM | – |
| COc1cccc(CCc2cc(Nc3ccnc(NCc4cc(C)no4)n3)n[nH]2)c1 [Example 27, N′-[5-[2-(3-methoxyphenyl)ethyl]-2H-pyrazol-3-yl]-N-[(3-methyl-1,2-oxazol-5-yl)methyl]pyrimidine-2,4-diamine] | – | – | – | – | > 10000 nM | < 100 nM | < 200 nM | – | – | < 200 nM | – |
| COc1cccc(CCc2cc(Nc3ccnc(NCc4cc(C5CC5)no4)n3)n[nH]2)c1 [Example 28, N-[(3-cyclopropyl-1,2-oxazol-5-yl)methyl]-N′-[5-[2-(3-methoxyphenyl)ethyl]-2H-pyrazol-3-yl]pyrimidine-2,4-diamine] | – | – | – | – | – | 100 to 1000 nM | < 200 nM | < 200 nM | – | < 200 nM | – |
| COc1cccc(CCc2cc(Nc3ccnc(NCc4cc(C(N)=O)no4)n3)[nH]n2)c1 [Example 29, 5-[[[4-[[5-[2-(3-methoxyphenyl)ethyl]-2H-pyrazol-3-yl]amino]pyrimidin-2-yl]amino]methyl]-1,2-oxazole-3-carboxamide] | – | – | – | – | > 10000 nM | < 100 nM | < 10000 nM | – | – | < 200 nM | – |
| COc1cccc(CCc2cc(Nc3ccnc(NCc4cc(-c5ncccn5)no4)n3)[nH]n2)c1 [Example 33, N′-[5-[2-(3-methoxyphenyl)ethyl]-2H-pyrazol-3-yl]-N-[(3-pyrimidin-2-yl1,2-oxazol-5-yl)methyl]pyrimidine-2,4-diamine] | – | – | – | – | > 10000 nM | – | – | – | 518 nM | < 200 nM | IC50 (FGFR kinase domain; stated after the ELISA results table, read-out: IC50): 92 nM; IC50 (Erk phosphorylation; [10]): < 1000 nM |
| Cc1cc(CNc2nccc(Nc3cc(OC(C)C)[nH]n3)n2)on1 [Example 66, N-[(3-methyl-1,2-oxazol-5-yl)methyl]-N′-(5-propan-2-yloxy-2H-pyrazol-3-yl)pyrimidine-2,4-diamine] | – | – | – | – | > 10000 nM | < 100 nM | < 1000 nM | < 1000 nM | < 200 nM | < 200 nM | – |
| CC(C)Oc1cc(Nc2ccnc(NCc3cc(C4CC4)no3)n2)n[nH]1 [Example 67, N-[(3-cyclopropyl-1,2-oxazol-5-yl)methyl]-N′-(5-propan-2-yloxy-2H-pyrazol-3-yl)pyrimidine-2,4-diamine] | – | – | – | – | 1000 to 10000 nM | < 100 nM | < 200 nM | < 200 nM | < 200 nM | < 200 nM | – |
| Cc1cc(CNc2nccc(Nc3cc(OCc4ccccc4)[nH]n3)n2)on1 [Example 72, N-[(3-methyl-1,2-oxazol-5-yl)methyl]-N′-(5-phenylmethoxy-1H-pyrazol-3-yl)pyrimidine-2,4-diamine] | – | – | – | – | – | 100 to 1000 nM | – | – | – | – | IC50 (Erk phosphorylation; [10]): < 1000 nM |
| COc1cc(COc2cc(Nc3ccnc(NCc4cc(C)no4)n3)n[nH]2)cc(OC)c1 [Example 73, N′-[5-[(3,5-dimethoxyphenyl)methoxy]-1H-pyrazol-3-yl]-N-[(3-methyl-1,2-oxazol-5-yl)methyl]pyrimidine-2,4-diamine] | – | – | – | – | 1000 to 10000 nM | < 100 nM | < 200 nM | < 200 nM | < 200 nM | < 200 nM | – |
| COc1ccc2[nH]c([S+]([O-])Cc3ncc(C)c(OC)c3C)nc2c1 (stereo not shown) [Omeprazole] | – | – | 1500 to 4600 nM | – | – | – | – | – | – | – | – |
